In ChEMBL document CHEMBL1932955, “Discovery of potent small molecule inhibitors of DYRK1A by structure-based virtual screening and bioassay” (Bioorg Med Chem Lett, 2012) one finds IC50 data, which are given here for 1 molecule.

What is called IC50 is the concentration needed to halve the response being measured.

For the assay, the target named is Dual specificity tyrosine-phosphorylation-regulated kinase 1A (Homo sapiens, UniProt Q13627). Put plainly: Inhibition of GST-tagged human DYRK1A using dephosphorylated MBP as substrate after 10 mins by Kinase-Glo plus luminescent kinase assay. A general note: Kinase-Glo measures the ATP left after a reaction by luminescence.

For `O=C(O[C@@H]1Cc2c(O)cc(O)cc2O[C@@H]1c1cc(O)c(O)c(O)c1)c1cc(O)c(O)c(O)c1` [EPIGALOCATECHIN GALLATE], the 50% inhibitory concentration (IC50) is 13.4 µM.
